The text below walks through data of patent publication US20140206633A1, “PROCESS FOR THE PREPARATION OF ISOXAZOLINE DERIVATIVES” (SYNGENTA CROP PROTECTION LLC, priority 2010, published 2014).

Molecules are shown by their SMILES.

A word on the melting point: it is the temperature, or range, at which the solid turns liquid.

Regarding `C=CC1C[N+]2(Cc3c4ccccc4cc4ccccc34)CCC1C[C@H]2[C@H](O)c1ccnc2ccc(OC)cc12.[Cl-]` (some centres unmarked), the melting point was 150 to 152 °C (dec.).
In the case of `C=CC1C[N+]2(Cc3c(F)c(F)c(F)c(F)c3F)CCC1C[C@H]2[C@H](O)c1ccnc2ccc(OC)cc12.[Br-]` (some centres unmarked) it was 162 to 165 °C (dec.).
